Assay results taken from ChEMBL document CHEMBL1201862, “PubChem BioAssay data set” (2004).
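Five concentrations, 48 hours, 96-well plates. Abbreviation: GI50, concentration required for 50% inhibition of growth.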 Activity calls are given as the source filed them. Cut-off read from the data, not from the text of the source: active = GI50 up to about 1.1 µM and inactive = higher.

Key:
Assay in all cases: growth of human tumour cells (NCI), 48 h
[1] = tested on: LOX IMVI
[2] = tested on: SF-539
[3] = tested on: SK-MEL-5
[4] = tested on: RPMI-8226
[5] = tested on: SK-MEL-28
[6] = tested on: SNB-19
[7] = tested on: BT-549
[8] = tested on: MOLT-4
[9] = tested on: M14
[10] = tested on: 786-0
[11] = tested on: OVCAR-8
[12] = tested on: OVCAR-4
[13] = tested on: SW-620
[14] = tested on: SK-OV-3
[15] = tested on: MDA-MB-231
[16] = tested on: HT-29
[17] = tested on: ACHN
[18] = tested on: PC-3
[19] = tested on: HL-60

Measured: GI50

CC(=O)N(CC(=O)C(=O)NNc1ccoc1)c1ccc(Cl)cc1
inactive: [1] > 100 µM | [2] > 100 µM | [3] > 100 µM | [4] > 100 µM | [5] > 100 µM | [6] > 100 µM | [7] > 100 µM | [8] > 100 µM | [9] > 100 µM | [10] 94 µM | [11] > 100 µM | [12] > 100 µM | [13] > 100 µM | [14] > 100 µM | [15] > 100 µM | [16] > 100 µM | [17] 37.8 µM | [18] > 100 µM

CCc1ccc(CCN2CCCCC2)nc1
inactive: [1] > 100 µM | [3] > 100 µM | [4] 96.8 µM | [5] > 100 µM | [6] > 100 µM | [7] > 100 µM | [8] > 100 µM | [9] > 100 µM | [10] > 100 µM | [11] > 100 µM | [12] > 100 µM | [13] > 100 µM | [14] > 100 µM | [15] > 100 µM | [16] > 100 µM | [17] > 100 µM | [18] > 100 µM

Cc1cc(C#N)c(Nc2ccccc2[N+](=O)[O-])s1
inactive: [2] 27.7 µM | [4] 22.6 µM | [5] 45.2 µM | [6] 41 µM | [7] 19.4 µM | [8] 55.7 µM | [9] 32.8 µM | [10] 49.9 µM | [11] 31 µM | [12] 89.3 µM | [13] 25.5 µM | [14] 26.4 µM | [15] 24.7 µM | [17] 58.7 µM | [18] 23.8 µM

O=C1c2cc3c(cc2NC(c2ccccc2F)C1O)OCO3 (stereo unspecified)
inactive: [1] 17.9 µM | [2] 12.2 µM | [3] 4.86 µM | [4] 30.5 µM | [5] 18.5 µM | [6] 21.3 µM | [7] 57.1 µM | [8] 19.5 µM | [9] 10.4 µM | [10] 15.5 µM | [11] 28.2 µM | [12] 35.8 µM | [13] 5.19 µM | [14] 17.7 µM | [15] 20.2 µM | [16] 17.6 µM | [17] 31.9 µM | [18] 10.6 µM

COc1ccc(C(=O)/C=C/c2ccc(OCC#N)cc2)cc1OC
inactive: [2] 17.9 µM | [3] 18.3 µM | [5] 14.6 µM | [6] 15.1 µM | [7] 15.5 µM | [8] 10.3 µM | [9] 16.4 µM | [10] 19.9 µM | [11] 28 µM | [12] 40.7 µM | [13] 7.16 µM | [14] 26.5 µM | [15] 13.8 µM | [16] 22.3 µM | [17] 30.1 µM | [18] > 10 µM

CC(SC(=S)N(C)C)C(=O)Nc1nnc(-c2ccc(Cl)cc2)o1 (stereo unspecified)
inactive: [1] 16.9 µM | [2] 59.7 µM | [3] 31.6 µM | [4] 22.6 µM | [5] 53 µM | [6] 35.3 µM | [7] 89.1 µM | [8] 3.24 µM | [9] 37.1 µM | [10] 20.8 µM | [11] 49.7 µM | [12] 44.7 µM | [13] 34.7 µM | [14] > 100 µM | [15] 44.6 µM | [16] 24 µM | [17] 36 µM | [18] 35.9 µM

CC(=O)OC1CCC2(C)C(=CCC3C2CCC2(C)C(C(C)C(=O)O)CCC32)C1 (stereo unspecified)
inactive: [1] > 100 µM | [2] > 100 µM | [3] 70.6 µM | [4] > 100 µM | [5] > 100 µM | [6] > 100 µM | [7] > 100 µM | [8] > 100 µM | [9] > 100 µM | [10] > 100 µM | [11] > 100 µM | [12] > 100 µM | [13] > 100 µM | [14] > 100 µM | [15] > 100 µM | [16] 48.6 µM | [17] 59.7 µM | [18] > 100 µM

NS(=O)(=O)c1nnc(NC(=O)Nc2ccc(Cl)c(Cl)c2)s1
inactive: [1] 18.2 µM | [2] 19 µM | [3] 16.7 µM | [4] 17.5 µM | [5] 17.1 µM | [6] 21 µM | [7] 20 µM | [8] 32.5 µM | [9] 16.8 µM | [10] 24.3 µM | [11] 20.4 µM | [12] 30.6 µM | [13] 27.9 µM | [19] 28.8 µM | [14] 20.6 µM | [15] 25.9 µM | [16] 16.7 µM | [17] 34.2 µM

O=C(/C=C/c1ccc(-c2ccccc2[N+](=O)[O-])o1)NCc1ccc(C(=O)NCCc2ccccc2)cc1
inactive: [1] > 100 µM | [2] > 100 µM | [3] > 100 µM | [4] > 100 µM | [5] > 100 µM | [6] > 100 µM | [7] > 100 µM | [8] > 100 µM | [9] > 100 µM | [10] > 100 µM | [11] > 100 µM | [12] > 100 µM | [13] > 100 µM | [14] > 100 µM | [15] > 100 µM | [16] > 100 µM | [17] > 100 µM | [18] > 100 µM

O=c1cccc2n1CC1CNC[C@H]2C1 [CYTISINICLINE]
inactive: [1] > 100 µM | [3] > 100 µM | [5] > 100 µM | [6] > 100 µM | [7] > 100 µM | [8] > 100 µM | [9] > 100 µM | [10] > 100 µM | [11] > 100 µM | [12] > 100 µM | [13] > 100 µM | [14] > 100 µM | [15] > 100 µM | [16] > 100 µM | [17] > 100 µM | [18] > 100 µM

CCOP(=O)(OCC)C(F)(F)c1ccc(CC(NC(=O)OC(C)(C)C)C(=O)O)cc1 (stereo unspecified)
inactive: [1] > 10 µM | [2] > 10 µM | [3] > 10 µM | [5] > 10 µM | [6] > 10 µM | [7] > 10 µM | [8] > 10 µM | [9] > 10 µM | [10] > 10 µM | [11] > 10 µM | [12] > 10 µM | [13] > 10 µM | [14] > 10 µM | [15] > 10 µM | [16] > 10 µM | [17] > 10 µM | [18] > 10 µM

O=C1Nc2ccccc2/C1=N/N=C1NCCCCN1
inactive: [1] > 100 µM | [2] > 100 µM | [3] > 100 µM | [4] > 100 µM | [6] > 100 µM | [7] > 100 µM | [8] > 100 µM | [9] > 100 µM | [10] > 100 µM | [11] > 100 µM | [12] > 100 µM | [13] > 100 µM | [14] > 100 µM | [15] > 100 µM | [16] > 100 µM | [17] > 100 µM | [18] > 100 µM
